Measured values published in the NIST ThermoML archive (doi:10.1016/j.jct.2015.04.030).
± gives the expanded uncertainty stated by the source.

Experiment: excess molar enthalpy (molar enthalpy of mixing); xn = mol fraction of the nth substance listed
Details: 100 kPa, Liquid, Calvet calorimetry

NCCNCCNCCN [1,2-ethanediamine, N,N'-bis(2-aminoethyl)-] + O
Details	excess molar enthalpy [kcal/mol]
303.15 K, x1 = 0.0497	-0.671 ± 0.0151
303.15 K, x1 = 0.0697	-0.889 ± 0.0194
303.15 K, x1 = 0.1129	-1.25 ± 0.0263
303.15 K, x1 = 0.2006	-1.57 ± 0.0335
303.15 K, x1 = 0.2478	-1.62 ± 0.0335
303.15 K, x1 = 0.3031	-1.6 ± 0.0335
303.15 K, x1 = 0.3527	-1.55 ± 0.0335
303.15 K, x1 = 0.4038	-1.4 ± 0.0287
303.15 K, x1 = 0.5069	-1.15 ± 0.0239
303.15 K, x1 = 0.589	-0.974 ± 0.0208
303.15 K, x1 = 0.701	-0.71 ± 0.0151
323.15 K, x1 = 0.0496	-0.633 ± 0.0141
323.15 K, x1 = 0.1103	-1.2 ± 0.0263
323.15 K, x1 = 0.1998	-1.44 ± 0.0311
323.15 K, x1 = 0.2469	-1.5 ± 0.0311
323.15 K, x1 = 0.3041	-1.49 ± 0.0311
323.15 K, x1 = 0.4041	-1.32 ± 0.0287
323.15 K, x1 = 0.4995	-1.11 ± 0.0237
323.15 K, x1 = 0.602	-0.91 ± 0.0194
323.15 K, x1 = 0.7006	-0.636 ± 0.0136

NCCOCCO [2-(2-aminoethoxy)ethanol] + O
Details	excess molar enthalpy [kcal/mol]
303.15 K, x1 = 0.0626	-0.24 ± 0.00526
303.15 K, x1 = 0.1041	-0.355 ± 0.00765
303.15 K, x1 = 0.1949	-0.509 ± 0.0108
303.15 K, x1 = 0.3027	-0.551 ± 0.0117
303.15 K, x1 = 0.3448	-0.565 ± 0.012
303.15 K, x1 = 0.398	-0.556 ± 0.012
303.15 K, x1 = 0.5045	-0.483 ± 0.0103
303.15 K, x1 = 0.604	-0.414 ± 0.00884
303.15 K, x1 = 0.7062	-0.333 ± 0.00717
303.15 K, x1 = 0.8105	-0.223 ± 0.00478
303.15 K, x1 = 0.9035	-0.11 ± 0.00239
323.15 K, x1 = 0.0628	-0.222 ± 0.00478
323.15 K, x1 = 0.1062	-0.335 ± 0.00717
323.15 K, x1 = 0.1982	-0.468 ± 0.01
323.15 K, x1 = 0.3017	-0.527 ± 0.0112
323.15 K, x1 = 0.342	-0.539 ± 0.0115
323.15 K, x1 = 0.4004	-0.527 ± 0.0112
323.15 K, x1 = 0.5053	-0.483 ± 0.0103
323.15 K, x1 = 0.5967	-0.417 ± 0.00884
323.15 K, x1 = 0.7043	-0.329 ± 0.00693
323.15 K, x1 = 0.8037	-0.224 ± 0.00478
323.15 K, x1 = 0.9032	-0.107 ± 0.00239

CN(C)CCN(C)CCO [2-{[2-(dimethylamino)ethyl](methyl)amino}ethanol] + O
303.15 K
Details	excess molar enthalpy [kcal/mol]
x1 = 0.1012	-0.696 ± 0.0148
x1 = 0.2028	-0.863 ± 0.0184
x1 = 0.25	-0.894 ± 0.0191
x1 = 0.3015	-0.862 ± 0.0184
x1 = 0.4004	-0.836 ± 0.0177
x1 = 0.4989	-0.716 ± 0.0153

CN(C)CCCO [3-dimethylamino-1-propanol] + O
Details	excess molar enthalpy [kcal/mol]
303.15 K, x1 = 0.0505	-0.252 ± 0.0055
303.15 K, x1 = 0.1027	-0.436 ± 0.00932
303.15 K, x1 = 0.1998	-0.601 ± 0.0129
303.15 K, x1 = 0.3003	-0.683 ± 0.0146
303.15 K, x1 = 0.3515	-0.689 ± 0.0148
303.15 K, x1 = 0.3975	-0.69 ± 0.0148
303.15 K, x1 = 0.5019	-0.647 ± 0.0139
303.15 K, x1 = 0.6483	-0.502 ± 0.0108
303.15 K, x1 = 0.8001	-0.301 ± 0.00645
303.15 K, x1 = 0.9452	-0.0951 ± 0.00215
323.15 K, x1 = 0.0495	-0.229 ± 0.00502
323.15 K, x1 = 0.1003	-0.35 ± 0.00765
323.15 K, x1 = 0.1782	-0.485 ± 0.0105
323.15 K, x1 = 0.3006	-0.587 ± 0.0127
323.15 K, x1 = 0.3485	-0.597 ± 0.0127
323.15 K, x1 = 0.3981	-0.6 ± 0.0129
323.15 K, x1 = 0.4977	-0.568 ± 0.0122
323.15 K, x1 = 0.6455	-0.438 ± 0.00932
323.15 K, x1 = 0.7962	-0.269 ± 0.00574
323.15 K, x1 = 0.9446	-0.0743 ± 0.00167

CCN(CC)CCO [(diethylamino)ethanol] + O
Details	excess molar enthalpy [kcal/mol]
303.15 K, x1 = 0.0504	-0.253 ± 0.0055
303.15 K, x1 = 0.1001	-0.377 ± 0.00813
303.15 K, x1 = 0.2008	-0.522 ± 0.0112
303.15 K, x1 = 0.301	-0.607 ± 0.0129
303.15 K, x1 = 0.3688	-0.62 ± 0.0131
303.15 K, x1 = 0.387	-0.625 ± 0.0134
303.15 K, x1 = 0.4002	-0.621 ± 0.0134
303.15 K, x1 = 0.4522	-0.611 ± 0.0131
303.15 K, x1 = 0.5002	-0.598 ± 0.0129
303.15 K, x1 = 0.5998	-0.528 ± 0.0112
303.15 K, x1 = 0.7003	-0.418 ± 0.00908
303.15 K, x1 = 0.8007	-0.288 ± 0.00621
303.15 K, x1 = 0.901	-0.144 ± 0.00311
323.15 K, x1 = 0.0502	-0.192 ± 0.0043
323.15 K, x1 = 0.1009	-0.296 ± 0.00645
323.15 K, x1 = 0.1951	-0.407 ± 0.00884
323.15 K, x1 = 0.3002	-0.482 ± 0.0103
323.15 K, x1 = 0.369	-0.499 ± 0.0108
323.15 K, x1 = 0.4006	-0.502 ± 0.0108
323.15 K, x1 = 0.5005	-0.477 ± 0.0103
323.15 K, x1 = 0.6	-0.422 ± 0.00908
323.15 K, x1 = 0.6191	-0.386 ± 0.00837
323.15 K, x1 = 0.6997	-0.341 ± 0.00741
323.15 K, x1 = 0.8005	-0.252 ± 0.0055
323.15 K, x1 = 0.9006	-0.12 ± 0.00263

CN(C)CCN(C)CCN(C)C [N,N,N',N'',N''-pentamethyldiethylenetriamine] + O
excess molar enthalpy [kcal/mol]
Details	303.15 K	323.15 K
x1 = 0.0486	-0.641 ± 0.0139	–
x1 = 0.0506	–	-0.561 ± 0.0122
x1 = 0.099	-0.948 ± 0.0203	–
x1 = 0.1024	–	-0.825 ± 0.0177
x1 = 0.15	-1.03 ± 0.022	-0.908 ± 0.0194
x1 = 0.2	–	-0.951 ± 0.0203
x1 = 0.2072	-1.08 ± 0.0229	–
x1 = 0.2492	-1.05 ± 0.0225	–
x1 = 0.25	–	-0.927 ± 0.0198
x1 = 0.3	-1 ± 0.0213	–
x1 = 0.3062	–	-0.869 ± 0.0186
x1 = 0.4001	–	-0.77 ± 0.0165
x1 = 0.4063	-0.841 ± 0.0179	–
x1 = 0.4895	-0.727 ± 0.0155	–
x1 = 0.5005	–	-0.618 ± 0.0131
x1 = 0.6001	–	-0.478 ± 0.0103
x1 = 0.6117	-0.538 ± 0.0115	–

NCCNCCO [N-(2-aminoethyl)ethanolamine] + O
303.15 K
Details	excess molar enthalpy [kcal/mol]
x1 = 0.1031	-0.554 ± 0.012
x1 = 0.202	-0.863 ± 0.0184
x1 = 0.3019	-0.963 ± 0.0206
x1 = 0.3567	-0.995 ± 0.0213
x1 = 0.4023	-0.957 ± 0.0203
x1 = 0.4991	-0.88 ± 0.0186
x1 = 0.5997	-0.74 ± 0.0158
x1 = 0.7027	-0.579 ± 0.0124

NCCCNCCCN [bis(3-aminopropyl)amine] + O
excess molar enthalpy [kcal/mol]
Details	303.15 K	323.15 K
x1 = 0.0507	–	-0.581 ± 0.0129
x1 = 0.0508	-0.621 ± 0.0136	–
x1 = 0.1064	–	-1.05 ± 0.0225
x1 = 0.1065	-1.11 ± 0.0237	–
x1 = 0.1991	–	-1.43 ± 0.0311
x1 = 0.1993	-1.52 ± 0.0335	–
x1 = 0.3005	-1.57 ± 0.0335	-1.48 ± 0.0311
x1 = 0.4049	-1.47 ± 0.0311	–
x1 = 0.4057	–	-1.34 ± 0.0287
x1 = 0.4998	-1.33 ± 0.0287	–
x1 = 0.5003	–	-1.21 ± 0.0263
x1 = 0.602	-1.09 ± 0.0234	–
x1 = 0.6022	–	-0.916 ± 0.0196
x1 = 0.6842	-0.83 ± 0.0177	-0.744 ± 0.0158
x1 = 0.8014	–	-0.463 ± 0.01
x1 = 0.8015	-0.534 ± 0.0115	–

NCCNCCN [di(2-aminoethyl)amine] + O
Details	excess molar enthalpy [kcal/mol]
303.15 K, x1 = 0.0509	-0.542 ± 0.0122
303.15 K, x1 = 0.1001	-0.981 ± 0.021
303.15 K, x1 = 0.1544	-1.33 ± 0.0287
303.15 K, x1 = 0.1962	-1.48 ± 0.0311
303.15 K, x1 = 0.2416	-1.56 ± 0.0335
303.15 K, x1 = 0.3018	-1.59 ± 0.0335
303.15 K, x1 = 0.4026	-1.52 ± 0.0335
303.15 K, x1 = 0.501	-1.29 ± 0.0287
303.15 K, x1 = 0.6025	-1.05 ± 0.0225
303.15 K, x1 = 0.702	-0.811 ± 0.0172
303.15 K, x1 = 0.7984	-0.57 ± 0.0122
323.15 K, x1 = 0.0503	-0.504 ± 0.0112
323.15 K, x1 = 0.0989	-0.911 ± 0.0196
323.15 K, x1 = 0.2028	-1.41 ± 0.0287
323.15 K, x1 = 0.3003	-1.51 ± 0.0311
323.15 K, x1 = 0.4044	-1.38 ± 0.0287
323.15 K, x1 = 0.51	-1.21 ± 0.0263
323.15 K, x1 = 0.6027	-0.938 ± 0.0201
323.15 K, x1 = 0.7018	-0.762 ± 0.0163
323.15 K, x1 = 0.7983	-0.512 ± 0.011

OCCNCCO [diethanolamine] + O
298.15 K
Details	excess molar enthalpy [kcal/mol]
x1 = 0.05035	-0.13 ± 0.00311
x1 = 0.1001	-0.266 ± 0.00574
x1 = 0.1989	-0.41 ± 0.00884
x1 = 0.2023	-0.415 ± 0.00884
x1 = 0.2958	-0.484 ± 0.0103
x1 = 0.3428	-0.494 ± 0.0105
x1 = 0.3974	-0.491 ± 0.0105
x1 = 0.4915	-0.465 ± 0.01
x1 = 0.599	-0.38 ± 0.00813
x1 = 0.7038	-0.304 ± 0.00645
x1 = 0.795	-0.223 ± 0.00478
x1 = 0.9029	-0.0989 ± 0.00215

OCCN(CCO)CCO [triethanolamine] + O
Details	excess molar enthalpy [kcal/mol]
303.15 K, x1 = 0.0473	-0.128 ± 0.00287
303.15 K, x1 = 0.1013	-0.222 ± 0.00478
303.15 K, x1 = 0.2063	-0.308 ± 0.00669
303.15 K, x1 = 0.3064	-0.334 ± 0.00717
303.15 K, x1 = 0.3548	-0.335 ± 0.00717
303.15 K, x1 = 0.4076	-0.327 ± 0.00693
303.15 K, x1 = 0.4902	-0.292 ± 0.00621
303.15 K, x1 = 0.5783	-0.267 ± 0.00574
303.15 K, x1 = 0.71	-0.201 ± 0.0043
303.15 K, x1 = 0.7943	-0.145 ± 0.00311
303.15 K, x1 = 0.8959	-0.0758 ± 0.00167
323.15 K, x1 = 0.0487	-0.119 ± 0.00263
323.15 K, x1 = 0.1001	-0.207 ± 0.00454
323.15 K, x1 = 0.2028	-0.288 ± 0.00621
323.15 K, x1 = 0.3033	-0.317 ± 0.00669
323.15 K, x1 = 0.3502	-0.322 ± 0.00693
323.15 K, x1 = 0.4	-0.319 ± 0.00693
323.15 K, x1 = 0.5021	-0.279 ± 0.00598
323.15 K, x1 = 0.6021	-0.249 ± 0.00526
323.15 K, x1 = 0.6989	-0.198 ± 0.0043
323.15 K, x1 = 0.8006	-0.14 ± 0.00311
323.15 K, x1 = 0.9009	-0.0679 ± 0.00143
